The results in this text go back to US20220218738A1, “POTASSIUM-BINDING AGENTS FOR USE IN HEMODIALYSIS PATIENTS” (AstraZeneca AB, priority 2019, published 2022).

The data set deals with hyperkalemia in patients on hemodialysis. Nature of the data set: Phase 3b randomized, double-blind, placebo-controlled study to reduce incidence of pre-dialysis hyperkalemia with SZC. Set-up: species or system human. The conditions noted are these: in vivo. As for the experimental part:
A Phase 3b, Multicenter, Prospective, Randomized, Double Blind, Placebocontrolled Study to Reduce Incidence of Pre-Dialysis Hyperkalemia with Sodium Zirconium Cyclosilicate (SZC) The study was carried out to evaluate the efficacy of Sodium Zirconium Cyclosilicate in the treatment of hyperkalemia in patients on hemodialysis. The study was designed to include approximately 180 patients with ESRD receiving maintenance hemodialysis treatments three times per week with an indication for treatment of hyperkalemia (FIG. 1). The study is a randomized, double-blind study with two treatment groups, SZC or placebo, and includes hemodialysis patients that have been on dialysis for a minimum of three months and receive treatment three times a week. Patients must have hemodialysis access consisting of an arteriovenous fistula, AV graft, or tunneled (permanent) catheter which is expected to remain in place for the entire duration of the study (FIG. 2).
The starting dose of SZC will be 5 g once daily on non-dialysis day and may be adjusted to a maximum of 15 g per non-dialysis day to maintain a pre-dialysis S-K between 4-5 mmol/L. SZC or placebo will be administered orally on non-dialysis days for a treatment period of eight weeks. Patients will be randomized (1:1) to double-blind treatment with either SZC or placebo, started at 5 g once daily on non-dialysis days, and titrated during a period of four weeks to achieve and maintain a pre-dialysis serum potassium between 4 and 5 mmol/L after the Long Inter-Dialytic Interval (LIDI). Maximum SZC dose is 15 g once daily on non-dialysis days. Treatment will be continued unchanged for an additional four week evaluation period to complete a total of 8 weeks. The primary benefit for patients randomized to SZC is expected to be the maintenance of normokalemia during the long interdialytic interval, potentially including the relief of associated signs and symptoms and an improved quality of life.
For inclusion in the study patients should fulfil the following criteria: 1. Provision of informed consent prior to any study specific procedures. 2. Female or male aged >18 years at screening Visit 1. For patients aged <20 years and enrolled in Japan, a written informed consent should be obtained from the patient and his or her legally acceptable representative. 3. Receiving hemodialysis (or hemodiafiltration) three times a week for treatment of endstage renal disease (ESRD) for at least three months before randomization. 4. […]
Patients should not enter the study if any of the following exclusion criteria are fulfilled: 1. […] Hemoglobin <9 g/dL on screening (as assessed on Visit 1). […]

With Sodium Zirconium Cyclosilicate [SZC], the “number of patients with adverse events” value is on record as 40, the “number of patients with serious adverse event” value came out at 7, the overall safety result is reported as “no safety concerns” and the “patients with pre-dialysis hypokalemia (serum K<3.5 mmol/L)” value is on record as “five”.
